Laboratory results from US11130801B2, “Method for inhibiting platelet derived growth factor signaling with C3aR or C5aR antibodies” (CASE WESTERN RESERVE UNIVERSITY, priority 2011, dated 2021).

How the values were obtained:
T cell = T cell activation in response to anti-CD3/28 stimulation; format: cell-based
From the text: (§1) Since some MMPs (MMP-9) is/are constitutively expressed and prothrombin synthesis and secretion might be induced by VEGF-A, prothrombin can cleaved to thrombin by an MMP, e.g., MMP-9 and thrombin, in turn, generates C5a from locally produced C5. The MMP inhibitor alternatively could exert its inhibitory effect on VEGF-A induced EC growth by the pathway that couples C3aR/C5aR signal transduction back to VEGFR2.

ECs = test: Proliferation of ECs in response to VEGF-A stimulation (thrombin/MMP inhibitors); format: cell-based
From the text: as §1

C3aR−/−C5aR−/− ECs = test: Growth of C3aR-/-C5aR-/- primary ECs; format: cell-based, mice; conditions: without or with added C5a
HUVEC = test: Complement mRNA transcripts in HUVEC by qPCR; format: cell-based; conditions: added C3a or C5a
Description: FIG. 33 illustrates charts showing qRT-PCR analysis of C3, factor B and factor D transcripts from HUVEC under hypoxia. A) HUVEC treated with TNF-α, IL-1, and IFN-γ. Blue bars represent samples after treatment. B-C) HUVEC stimulated with C3a (10 ng/ml for 2 hr) or C5a (10 ng/ml for 30 min) Blue bars represent control without C3a/C5a stimulation while red bars represent samples after stimulation. D) HUVEC incubated for 1 hr with FCCP+IAA. Blue bars represent control without hypoxia treatment while yellow bars represent two samples after hypoxia treatment.
We next conversely assessed how transducing C3aR/C5aR signals into ECs affects endogenous EC complement production and whether it is connected with “classical” EC responses. We incubated HUVEC with 1) inflammatory cytokines, 2) the mitochondrial uncoupler protonophore carbonyl cyanide p-(trifluoromethoxy)phenylhydrazone (FCCP)+iodoacetate (IAA) (which mimics hypoxia), or 3) C3a or C5a, after which we assayed complement mRNA transcripts by qPCR. […]
ECs and leukocytes locally synthesize C3/fB/fD/C5 and the elicited C3a/C5a signal through C3aR/C5aR on the same cells to amplify this synthesis. To determine whether ECs locally synthesize AP complement components, we added IL-1/IFN-γ/TNF-α to HUVEC, 1 hr after which we quantified C3 and fB transcripts by qPCR. […]

MS-1 ECs = test: Growth of MS-1 ECs with VEGF-A or IL-6; format: cell-based, murine; conditions: IL-6 alone
Description: FIG. 27 illustrates plots showing the growth of ECs in response to VEGF induces C3aR/C5aR signaling via an IL-6 and Stat3 dependent mechanism. VEGF-A was added to serum starved MS-1 cells in the absence or presence of anti-IL-6 neutralizing mAb (2 μg/ml) and growth was quantified at 24, […] and 72 hr.
FIG. 28 illustrates plots showing the growth of serum starved MS-1 cells in the absence or presence of C3aR-A/C5aR-A (10 ng/ml each) and IL-6 (10 ng/ml) at 24, 48 and 72 hr.
For studies with bEnd.3 and MS-1 cells, 5×10^4 cells were plated in 24-well plates and allowed to adhere for 24 hr. Following culturing in 0.5% FBS with DMEM for another 24 hours, the cells were treated as described in the FIG. legends. Growth was quantified manually at 24, 48 and 72 hr with trypan blue. At least 95% of cells were viable in all experiments. VEGF-A was used at a concentration of 30 ng/ml, C3a and C5a at 1 ug/ml, and […] at I ug/ml.
Numerous past studies have linked VEGF with both IL-6 and p-Stat3 our prior studies by ourselves has shown that C5a induces IL-6 and that IL-6 signaling is interconnected with C3aR/C5aR signaling. To determine if the linkage between VEGF and C3aR/C5aR signaling in ECs involves IL-6, we incubated MS-1 ECs with 1) VEGF-A alone, IL-6 alone, or VEGF-A plus anti-IL-6 mAb, or with 2) IL-6 alone or IL-6 plus C3aR-A/C5aR-A, and assayed cell growth. […]

Stat3 = Stat3 phosphorylation in serum starved MS-1 cells; format: cell-based, murine; conditions: growth factor alone
Description: FIG. 29 illustrates a chart showing phosphor-Stat3 of serum starved MS-1 cells incubated for 10 min at 37° C. with VEGF-A or IL-6 in the absence or presence of anti-IL-6 mAb or C3aR-A/C5aR-A.
Numerous past studies have linked VEGF with both IL-6 and p-Stat3 our prior studies by ourselves has shown that C5a induces IL-6 and that IL-6 signaling is interconnected with C3aR/C5aR signaling. To determine if the linkage between VEGF and C3aR/C5aR signaling in ECs involves IL-6, we incubated MS-1 ECs with 1) VEGF-A alone, IL-6 alone, or VEGF-A plus anti-IL-6 mAb, or with 2) IL-6 alone or IL-6 plus C3aR-A/C5aR-A, and assayed cell growth. […] The growth induction of ECs of IL-6, like that of VEGF-A, was abolished by C3aR-A/C5aR-A (FIG. 28). Both VEGF-A and IL-6 induced Stat3 phosphorylation and the Stat3 phosphorylation in both cases was abolished by C3aR/C5aR antagonism (FIG. 29). […] These finding thus indicate that VEGF interconnects with C3aR/C5aR signaling via the induction of IL-6 and its activation of Stat3.

NIH-3T3 cells [1] = test: TGF-β1 production and effect in PDGF-AA treated NIH-3T3 cells; format: cell-based
From the text: Antagonizing C3aR/C5aR signal transduction induces the synthesis and activation of TGF-β1. We investigated whether TGF-β1 production might underlie the growth suppression connected with C3aR/C5aR blockade. To test this, 1) we assayed supernatants from NIH-3T3 cells treated with PDGF-AA+anti-C3a/anti-C5a mAbs and 2) following removal of anti-C3a/anti-C5a from the mAb treated NIH-3T3 cell cultures (with protein-G beads), we added supernatants without or with anti-TGF-β1 blocking antibody to fresh cultures of PDGF-AA treated NIH-3T3 cells. […] Activation of latent TGF-β1 can be dependent on Thrombospondin 1 (Tsp-1). […] Collectively, these findings indicate that 1) disruption of C3aR/C5aR signaling evokes TGF-β1 production, 2) TGF-β1 enters into an autocrine signaling loop, and 3) C3aR/C5aR signals and TGF-β1 signals oppose each other in regulating PDGF induced growth.

NIH-3T3 cells [2] = test: C5a ELISA of NIH-3T3 culture supernatants; format: cell-based; conditions: PDGF-AA treated cells
Description: FIG. 31 illustrates charts showing: (A) C5a (17 ng/mL) added to NIH-3T3 cells. Bars represent 72 hr counts. (B) PDGF-AA was added to NIH-3T3 cells and a 72 hr culture supernatants were assayed for C5a by ELISA.
PDGF contributes to atherogenesis and plays a central role in neointimal proliferation following EC injury. In view of the growth difference of primary cultured Daf1^−/−, WT, C3aR^−/−C5aR^−/−, and C3^−/−C5^−/−SMCs, we examined whether C3aR/C5aR signals are interconnected with PDGF growth induction. For these studies, we utilized NIH-3T3 fibroblasts (which express PDGFR-αα) in conjunction with PDGF-AA. Following determination of optimal PDGF-AA doses, we incubated 1×10^5 cells/well in triplicate with 30 ng/ml of PDGF-AA±10 ng/ml of C3aR and C5aR antagonists (C3aR-A/C5aR-A), 10 ng/ml of anti-C3a/anti-C5a mAbs or respective controls, after which we quantified cell growth by counting cell numbers over time. […] To directly establish whether C5aR signals augment PDGF-AA growth signaling, we 1) quantified the effect of added C5a one growth, and 2) assayed C5a in culture supernatants of PDGF-AA treated cells. […] Because the dependence of PDGF growth induction on C3aR/C5aR signaling could be indirect, i.e., a consequence of its requirement for viability, we performed cell cycle assays.

NC(N)=NCCC[C@H](NC(=O)[C@@H]1CCCN1C(=O)[C@H](N)Cc1ccccc1)C(=O)CCl [PPACK]
T cell activation (T cell): virtually abolish | proliferation of ECs / VEGF induced EC growth induction (ECs): abolish

Cc1cc(C)c(/C=C2\C(=O)Nc3ccccc32)[nH]1 [SU5416]
growth of C3aR−/−C5aR−/− ECs (C3aR−/−C5aR−/− ECs): abolished

ANGIOMAX: thrombin specific inhibitor
T cell activation (T cell): virtually abolish | proliferation of ECs / VEGF induced EC growth induction (ECs): abolish

C3a: complement activation fragment (anaphylatoxin) added to cells
production of AP components by ECs (HUVEC): more AP components | transcription of C3 (HUVEC): increased

IL-6: cytokine added to MS-1 cells (10 ng/ml)
induction of EC growth (MS-1 ECs): comparably to VEGF-A | Stat3 phosphorylation (Stat3): induced

PDGF-AA: platelet derived growth factor, 30 ng/ml
suppression of TGF-β1 mRNA transcription (NIH-3T3 cells [1]; RT-PCR of PDGF-AA treated cells): ~3 fold | C5a generation by NIH-3T3 cells (NIH-3T3 cells [2]): amplified

TGF-β1: active TGF-β1 elicited in supernatants of mAb treated NIH-3T3 cells
suppression of PDGF-AA induced growth (NIH-3T3 cells [1]; elicited TGF-β1 in transferred supernatants): 5 fold
